Values of other authors in patent US20110091544A1 (priority 2009, published 2011).
Like-named read-outs stand apart in the source and are kept apart here.

What was measured:
[1] = test system: children scheduled for day surgery
acute seizures = settings: nasal
patients = settings: 7.5 mg; at 30 and 60 min after administration
[2] = 0.2 mg/kg; 30 min after premedication; children
[3] = test system: pediatric patients undergoing outpatient surgery; settings: in vivo
[4] = not given; remark: listed apart in the source
[5] = 250 mcg or 375 mcg sublingual
[6] = test system: healthy young subjects and healthy elderly subjects; settings: 125 mcg and 250 mcg
dental outpatients = settings: in vivo
healthy children = settings: oral 0.025 mg/kg, children aged 6 to 9 years
[7] = test system: 61-70 year old patients scheduled for ophthalmic surgery; settings: 200 mcg sublingual
[8] = not given; remark: listed apart in the source

Question: Which results are given for Cc1ncc2n1-c1ccc(Cl)cc1C(c1ccccc1F)=NC2 [midazolam, 8-chloro-6-(2-fluorophenyl)-1-methyl-4H-imidazo[1,5-a][1,4]benzodiazepine]?
Answer: children showing satisfactory sedation at 15 min after administration ([1]; 0.25 mg/kg sublingual, P=0.02): 28%; children showing satisfactory sedation at 15 min after administration ([1]; 0.5 mg/kg sublingual, P<0.001): 52%; children showing satisfactory sedation at 15 min after administration ([1]; 0.75 mg/kg sublingual, P<0.001): 64%; treatment of acute seizures (acute seizures): effective; sedation scores, sublingual group versus oral group (patients): higher; midazolam level, sublingual group versus nasal group [2]: statistically significantly higher; maximum plasma concentrations (15 mg oral dose): 70 to 120 ng/mL; time to maximum plasma concentrations (15 mg oral dose): within one hour; prolongation of plasma half-life (adults greater than 60 years): up to 3 times; plasma half-life (orally administered): 1.5 to 5 h; oral bioavailability (with a broad range): approximately 36%; children who had not previously cried who cried on administration [3]: 71%; patients who experienced nasal irritation [3]: 20 patients

Question: What does the source list for Cc1nnc2n1-c1ccc(Cl)cc1C(c1ccccc1Cl)=NC2 [triazolam, 8-chloro-6-(o-chlorophenyl)-1-methyl-4H-s-triazolo-[4,3-alpha][1,4]benzodiazepine]?
Answer: increase in Cmax ([4]; elderly versus young adults): 50%; Tmax ([4]; no change elderly versus young adults): 0.9 h; plasma half-life ([4]; orally administered): 1.5 to 5.5 h; higher peak plasma level ([4]; sublingual compared with oral administration): 20%; Cmax, range ([5]; children): 4.0 to 8.2 ng/mL; Tmax, range ([5]; children): 0.5 to 2 h; elimination half-life, range ([5]; children): 0.85 to 2.33 h; Cmax ([5]; children 64-98 months old, mean+/−SD): 4.9 ± 2.0 ng/mL; Tmax ([5]; children, mean+/−SD): 1.25 ± 0.533 h; elimination half-life ([5]; children, mean+/−SD): 1.52 ± 0.533 h; sedation and psychomotor performance, healthy elderly versus young persons at the same dose [6]: greater degree of sedation and greater impairment of psychomotor performance; higher bioavailability (dental outpatients): 28%; anxiety and pain at 15 minutes intraoperatively (dental outpatients; po): significantly less anxiety and pain; time to peak plasma concentration (healthy children): 74 ± 25 min; peak plasma concentration (healthy children; mean+/−SD): 8.5 ± 3.0 ng/mL; depth of sedation compared with 10 mg oral diazepam [7]: deeper sedation; time at which sedation developed after administration [7]: 60 to 90 min; elimination half-life ([8]; 500 mcg oral): 3.7 h; mean total area under the curve ([8]; 500 mcg oral): 22.6 ng·h/mL; peak plasma concentration ([8]; 500 mcg oral): 3.9 ng/mL; time of peak concentration ([8]; 500 mcg oral): 1.25 h; elimination half-life ([8]; 500 mcg sublingual): 4.1 h; mean total area under the curve ([8]; 500 mcg sublingual): 28.9 ng·h/mL; peak plasma concentration ([8]; 500 mcg sublingual): 4.7 ng/mL; time of peak concentration ([8]; 500 mcg sublingual): 1.22 h; bioavailability greater than oral ([8]; 500 mcg sublingual versus oral, average): 28%
